These results are taken from PMC11204291, “Structural characterization of macro domain–containing Thoeris antiphage defense systems” (Science Advances, 2024).

Assay [1] concerns the target T1, EcThsA (ThsA TM-macro effector), macro domain (Escherichia coli, UniProt A0A0H2V895, F250A/I219A/K249E/Q207E/R182E/R221E).
T1 construct: gene c2400; EcThsA^Macro; residues 62 to 278
T1 sequence (A0A0H2V895 62-278 R182E/Q207E/I219A/R221E/K249E/F250A): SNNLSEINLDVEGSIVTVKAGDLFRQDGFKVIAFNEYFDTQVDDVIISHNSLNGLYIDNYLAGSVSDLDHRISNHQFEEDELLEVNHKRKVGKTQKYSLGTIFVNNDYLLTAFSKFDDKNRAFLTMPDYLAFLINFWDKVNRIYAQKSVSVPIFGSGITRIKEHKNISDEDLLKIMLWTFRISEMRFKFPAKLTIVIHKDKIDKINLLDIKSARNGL
Description: ITC (~[…]); STD NMR. The assay is classed as binding.

The target in assay [2] is T2, EcThsA (ThsA TM-macro effector), macro domain (Escherichia coli, UniProt A0A0H2V895, N114A).
T2 construct: gene c2400; EcThsA^Macro; residues 62 to 278
As to the kind of experiment: STD NMR. The assay is classed as binding.

Assay [3] deals with T3, EcThsA (ThsA TM-macro effector), macro domain (Escherichia coli, UniProt A0A0H2V895).
T3 construct: gene c2400; EcThsA^Macro; residues 62 to 278
T3 sequence (A0A0H2V895 62-278): T1 sequence (A0A0H2V895 62-278 R182E/Q207E/I219A/R221E/K249E/F250A)
As to the kind of experiment: crystal structure of soaked complex ([…] Å); STD NMR. In kind it is binding.

The target of assay [4] is T1, EcThsA (ThsA TM-macro effector), macro domain. Description: ITC. In kind it is binding.
Assay [5] has as its target T4, PcThsA (ThsA TM-macro effector), macro domain (Pseudomonas corrugata, UniProt A0A7Y5Z1U6).
T4 construct: gene HNO91_03675; PcThsA^Macro; residues 63 to 278
As to the kind of experiment: crystal structure ([…] Å) with copurified ligand; LC-MS. In kind it is binding.

Assay [6] deals with T3, EcThsA (ThsA TM-macro effector), macro domain. As to the kind of experiment: ligand-induced self-aggregation of purified protein (turbidity, SDS-PAGE). In kind it is binding.
Assay [7] addresses T5, EcThsB1, TIR domain (Escherichia coli, UniProt A0A0H2V8B5).
T5 construct: gene TcpC; EcThsB1^TIR; residues 165 to 307
As to the kind of experiment: real-time 1H NMR NADase assay. The assay is classed as biochemical.

In assay [8] the target is T5, EcThsB1, TIR domain. As to the kind of experiment: 1H NMR base-exchange assay. In kind it is biochemical.
Assay [9] deals with macro domain of EcThsA (EcThsA^Macro; residues 62 to 278), wild type (E. coli CFT073). Description: SEC-MALS; Superdex 200 5/150 Increase equilibrated in gel filtration buffer, 30 μl of EcThsA^Macro at 0.25 ml/min; no ligand; monomer to dimer. Background: Size exclusion chromatography separates by hydrodynamic size, large species first.
Assay [10] shares this target. Description: aggregation assay (SDS-PAGE of soluble and insoluble fractions); protein 47 μM incubated with 1 mM ADPR (or 1 mM IAD) at 4°C for 1 hour; higher-order self-association of the dimers.

T5 sequence (A0A0H2V8B5 165-307 limits assumed): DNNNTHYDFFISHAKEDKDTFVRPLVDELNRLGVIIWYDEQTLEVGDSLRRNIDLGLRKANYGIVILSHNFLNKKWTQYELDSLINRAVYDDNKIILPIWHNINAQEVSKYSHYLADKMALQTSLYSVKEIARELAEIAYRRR
T4 sequence (A0A7Y5Z1U6 entry or part of it): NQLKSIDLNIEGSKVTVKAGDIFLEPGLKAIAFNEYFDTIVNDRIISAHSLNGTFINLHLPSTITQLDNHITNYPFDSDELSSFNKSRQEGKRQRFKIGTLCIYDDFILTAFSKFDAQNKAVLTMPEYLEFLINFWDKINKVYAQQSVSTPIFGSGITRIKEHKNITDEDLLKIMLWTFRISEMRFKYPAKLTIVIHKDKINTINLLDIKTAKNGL

In general, Kd refers to the concentration at which binding is half-saturated. A higher Kd goes with lower affinity. `Nc1ncnc2c1ncn2[C@@H]1O[C@H](COP(=O)(O)OP(=O)(O)OC[C@H]2O[C@H](O)[C@H](O)[C@@H]2O)[C@@H](O)[C@H]1O` [ADPR]: in assay [1], the Kd turned out to be 4600 ± 500 nM. The “STD NMR” value in assay [2] was “The N114A mutant could still bind ADPR (Fig. 1I), but the STD NMR signal intensities were different”. In addition, the “crystal structure of soaked complex (2.1 Å); STD NMR” value in [3] is “we observed continuous electron density for a molecule corresponding to ADPR in a highly conserved cleft”.
On to `Nc1ncnc2c1ncn2[C@@H]1O[C@H](COP(=O)(O)OP(=O)(O)OC[C@H]2O[C@@H](n3ccnc3)[C@H](O)[C@@H]2O)[C@@H](O)[C@H]1O` [IAD], for which binding in assay [4] was put at a Kd of 167 ± 91 nM. Further, the “crystal structure (1.6 Å) with copurified ligand; LC-MS” value in assay [5] was “revealed that the PcThsA^Macro bound nucleotide has a mass corresponding to IAD”. Besides, the “ligand-induced self-aggregation of purified protein (turbidity, SDS-PAGE)” value in [6] is “demonstrating that only ADPR and IAD can trigger self-aggregation of EcThsA^Macro”.
`NC(=O)c1ccc[n+]([C@@H]2O[C@H](COP(=O)([O-])OP(=O)(O)OC[C@H]3O[C@@H](n4cnc5c(N)ncnc54)[C@H](O)[C@@H]3O)[C@@H](O)[C@H]2O)c1` [NAD^+]: the “real-time 1H NMR NADase assay” value on EcThsB1, TIR domain [7] was “could use NAD^+ as a substrate to produce nicotinamide and ADP ribose (ADPR)”.
As for `NCCc1c[nH]cn1` [histamine], on EcThsB1, TIR domain [8], the “1H NMR base-exchange assay” value is “EcThsB1^TIR could use the histidine catabolite histamine as a substrate in base-exchange reactions, but not histidine”.
For the molecule `c1c[nH]cn1` [imidazole], at EcThsB1, TIR domain [8], the “1H NMR base-exchange assay” value was “only imidazole, histamine, and thiazole were observed to undergo base-exchange reactions with NAD^+ in the presence of EcThsB1^TIR”.
The stoichiometry N is the number of molecules, sites or subunits per partner or assembly. Take “macro domain of EcThsA (EcThsA^Macro; residues 62 to 278), wild type (domain or fragment)”: the stoichiometry N in assay [9] turned out to be 2. For the same molecule, in assay [10], the percent of the protein in the insoluble fraction after incubation with ADPR or IAD is > 50%.
